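Compound exposure: 48 hours, 5 concentrations, 96-well plates. GI50: concentration for 50% inhibition of growth.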 Active and inactive are the calls of the source. Cut-off read from the data, not from the text of the source: active = GI50 up to about 1.1 µM and inactive = higher.
Key:
Test in all cases: DTP human tumour cell line panel, 48 h
UACC-257 = tested on: UACC-257
OVCAR-5 = tested on: OVCAR-5
HOP-62 = tested on: HOP-62
OVCAR-3 = tested on: OVCAR-3
SF-268 = tested on: SF-268
NCI-H522 = tested on: NCI-H522
Hs-578T = tested on: Hs-578T
PC-3 = tested on: PC-3
SNB-19 = tested on: SNB-19
HL-60 = tested on: HL-60
SK-MEL-2 = tested on: SK-MEL-2
NCI/ADR-RES = tested on: NCI/ADR-RES
SK-MEL-28 = tested on: SK-MEL-28
HCT-15 = tested on: HCT-15
SNB-75 = tested on: SNB-75
SW-620 = tested on: SW-620
U-251 = tested on: U-251
OVCAR-4 = tested on: OVCAR-4
EKVX = tested on: EKVX
NCI-H23 = tested on: NCI-H23
MDA-N = tested on: MDA-N
RPMI-8226 = tested on: RPMI-8226
CAKI-1 = tested on: CAKI-1
IGROV-1 = tested on: IGROV-1
SK-MEL-5 = tested on: SK-MEL-5
COLO 205 = tested on: COLO 205
UO-31 = tested on: UO-31
DU-145 = tested on: DU-145
TK-10 = tested on: TK-10
SN12C = tested on: SN12C
K562 = tested on: K562
SR = tested on: SR
OVCAR-8 = tested on: OVCAR-8
RXF 393 = tested on: RXF 393
MDA-MB-435 = tested on: MDA-MB-435
LOX IMVI = tested on: LOX IMVI
HOP-92 = tested on: HOP-92
KM12 = tested on: KM12
BT-549 = tested on: BT-549
T47D = tested on: T47D
M14 = tested on: M14
A549 = tested on: A549
UACC-62 = tested on: UACC-62
HCC 2998 = tested on: HCC 2998
CCRF-CEM = tested on: CCRF-CEM
HT-29 = tested on: HT-29
786-0 = tested on: 786-0
MCF7 = tested on: MCF7
ACHN = tested on: ACHN
SK-OV-3 = tested on: SK-OV-3
SF-539 = tested on: SF-539
Malme-3M = tested on: Malme-3M
MDA-MB-231 = tested on: MDA-MB-231
SF-295 = tested on: SF-295
HCT-116 = tested on: HCT-116
NCI-H226 = tested on: NCI-H226
NCI-H460 = tested on: NCI-H460
MOLT-4 = tested on: MOLT-4

O=c1oc2ccccc2c(Nc2ccc3c(c2)S(=O)(=O)c2ccccc2O3)c1[N+](=O)[O-]
GI50 (UACC-257): 19.5 µM (inactive)
GI50 (OVCAR-5): 70 µM (inactive)
GI50 (HOP-62): 30 µM (inactive)
GI50 (OVCAR-3): 20.8 µM (inactive)
GI50 (SF-268): 33.8 µM (inactive)
GI50 (NCI-H522): 19.7 µM (inactive)
GI50 (Hs-578T): 36.7 µM (inactive)
GI50 (PC-3): 21.5 µM (inactive)
GI50 (SNB-19): 26.9 µM (inactive)
GI50 (HL-60): 27.3 µM (inactive)
GI50 (SK-MEL-2): 19.3 µM (inactive)
GI50 (NCI/ADR-RES): 34.4 µM (inactive)
GI50 (SK-MEL-28): 18.1 µM (inactive)
GI50 (HCT-15): 25.8 µM
GI50 (SNB-75): 22 µM (inactive)
GI50 (SW-620): 32.8 µM (inactive)
GI50 (U-251): 19.7 µM (inactive)
GI50 (OVCAR-4): 20 µM (inactive)
GI50 (EKVX): 30.6 µM (inactive)
GI50 (NCI-H23): 23.5 µM (inactive)
GI50 (MDA-N): 22.5 µM (inactive)
GI50 (RPMI-8226): 19.5 µM (inactive)
GI50 (CAKI-1): 17.8 µM (inactive)
GI50 (IGROV-1): 21.6 µM (inactive)
GI50 (SK-MEL-5): 20.1 µM (inactive)
GI50 (COLO 205): 22.3 µM (inactive)
GI50 (UO-31): 33.4 µM (inactive)
GI50 (DU-145): 27.6 µM (inactive)
GI50 (TK-10): 22.4 µM (inactive)
GI50 (SN12C): 25.6 µM (inactive)
GI50 (K562): 20.6 µM (inactive)
GI50 (SR): 22 µM (inactive)
GI50 (OVCAR-8): 25.2 µM (inactive)
GI50 (RXF 393): 19.5 µM (inactive)
GI50 (MDA-MB-435): 23.4 µM (inactive)
GI50 (LOX IMVI): 27 µM (inactive)
GI50 (HOP-92): 20 µM (inactive)
GI50 (KM12): 28.9 µM (inactive)
GI50 (BT-549): 24.2 µM (inactive)
GI50 (T47D): 18.7 µM (inactive)
GI50 (M14): 26.2 µM (inactive)
GI50 (A549): 28.1 µM (inactive)
GI50 (UACC-62): 14.5 µM (inactive)
GI50 (HCC 2998): 18.5 µM (inactive)
GI50 (CCRF-CEM): 23.6 µM (inactive)
GI50 (HT-29): 34.5 µM (inactive)
GI50 (786-0): 21.1 µM (inactive)
GI50 (MCF7): 21.8 µM (inactive)
GI50 (ACHN): 22.1 µM (inactive)
GI50 (SK-OV-3): 24 µM (inactive)
GI50 (SF-539): 25.3 µM (inactive)
GI50 (Malme-3M): 23.5 µM (inactive)
GI50 (MDA-MB-231): 24.5 µM (inactive)
GI50 (SF-295): 24.8 µM (inactive)
GI50 (HCT-116): 23.7 µM (inactive)
GI50 (NCI-H226): 25.7 µM (inactive)
GI50 (NCI-H460): 25.5 µM (inactive)

COc1ccc(C[C@H]2COC(=O)[C@@H]2Cc2cc(OC)c(OC)c(OC)c2)cc1OC
GI50 (UACC-257): > 75 µM (inactive)
GI50 (OVCAR-5): > 100 µM (inactive)
GI50 (HOP-62): > 100 µM (inactive)
GI50 (OVCAR-3): > 89.1 µM (inactive)
GI50 (SF-268): > 100 µM (inactive)
GI50 (NCI-H522): > 68.7 µM (inactive)
GI50 (Hs-578T): 38 µM (inactive)
GI50 (PC-3): 42 µM (inactive)
GI50 (SNB-19): > 100 µM (inactive)
GI50 (SK-MEL-2): > 88.3 µM (inactive)
GI50 (NCI/ADR-RES): 41.1 µM (inactive)
GI50 (SK-MEL-28): 98.2 µM (inactive)
GI50 (HCT-15): > 100 µM
GI50 (SNB-75): > 67.8 µM (inactive)
GI50 (SW-620): > 100 µM (inactive)
GI50 (U-251): > 100 µM (inactive)
GI50 (OVCAR-4): > 61.7 µM (inactive)
GI50 (EKVX): > 65.8 µM (inactive)
GI50 (NCI-H23): 99.3 µM (inactive)
GI50 (MDA-N): 78.7 µM (inactive)
GI50 (MOLT-4): 32.4 µM (inactive)
GI50 (RPMI-8226): 17.1 µM (inactive)
GI50 (CAKI-1): > 100 µM (inactive)
GI50 (IGROV-1): > 94.6 µM (inactive)
GI50 (SK-MEL-5): 26.2 µM (inactive)
GI50 (COLO 205): > 100 µM (inactive)
GI50 (UO-31): 43.6 µM (inactive)
GI50 (DU-145): > 100 µM (inactive)
GI50 (TK-10): > 100 µM (inactive)
GI50 (SN12C): > 100 µM (inactive)
GI50 (K562): 77.8 µM (inactive)
GI50 (SR): 5.9 µM (inactive)
GI50 (OVCAR-8): 50.1 µM (inactive)
GI50 (RXF 393): > 54.5 µM (inactive)
GI50 (MDA-MB-435): > 81.1 µM (inactive)
GI50 (LOX IMVI): > 74.1 µM (inactive)
GI50 (HOP-92): 16 µM (inactive)
GI50 (KM12): > 70.3 µM (inactive)
GI50 (BT-549): 32 µM (inactive)
GI50 (T47D): 17.9 µM (inactive)
GI50 (M14): 90.4 µM (inactive)
GI50 (A549): > 100 µM (inactive)
GI50 (UACC-62): 72.1 µM (inactive)
GI50 (HCC 2998): > 81.7 µM (inactive)
GI50 (CCRF-CEM): 48.2 µM (inactive)
GI50 (HT-29): > 100 µM (inactive)
GI50 (786-0): > 100 µM (inactive)
GI50 (MCF7): > 64 µM (inactive)
GI50 (ACHN): > 100 µM (inactive)
GI50 (SK-OV-3): > 100 µM (inactive)
GI50 (SF-539): > 100 µM (inactive)
GI50 (Malme-3M): > 100 µM (inactive)
GI50 (MDA-MB-231): > 87.3 µM (inactive)
GI50 (SF-295): > 100 µM (inactive)
GI50 (HCT-116): > 87.9 µM (inactive)
GI50 (NCI-H226): > 34.4 µM (inactive)
GI50 (NCI-H460): > 100 µM (inactive)

COc1ccc(-c2cc3c(c4cc(OC)ccc24)C(=O)OC3=O)cc1
GI50 (UACC-257): > 100 µM (inactive)
GI50 (OVCAR-5): > 100 µM (inactive)
GI50 (HOP-62): > 100 µM (inactive)
GI50 (OVCAR-3): > 100 µM (inactive)
GI50 (SF-268): > 100 µM (inactive)
GI50 (NCI-H522): > 100 µM (inactive)
GI50 (Hs-578T): > 100 µM (inactive)
GI50 (PC-3): > 100 µM (inactive)
GI50 (SNB-19): > 100 µM (inactive)
GI50 (HL-60): > 100 µM (inactive)
GI50 (SK-MEL-2): > 100 µM (inactive)
GI50 (NCI/ADR-RES): > 100 µM (inactive)
GI50 (SK-MEL-28): > 100 µM (inactive)
GI50 (HCT-15): > 100 µM
GI50 (SNB-75): 68.1 µM (inactive)
GI50 (SW-620): > 100 µM (inactive)
GI50 (U-251): > 100 µM (inactive)
GI50 (OVCAR-4): > 100 µM (inactive)
GI50 (EKVX): > 100 µM (inactive)
GI50 (NCI-H23): > 100 µM (inactive)
GI50 (MDA-N): 86.5 µM (inactive)
GI50 (MOLT-4): > 100 µM (inactive)
GI50 (RPMI-8226): > 100 µM (inactive)
GI50 (CAKI-1): > 100 µM (inactive)
GI50 (IGROV-1): > 100 µM (inactive)
GI50 (SK-MEL-5): > 100 µM (inactive)
GI50 (COLO 205): > 100 µM (inactive)
GI50 (UO-31): 95.5 µM (inactive)
GI50 (DU-145): > 100 µM (inactive)
GI50 (TK-10): > 100 µM (inactive)
GI50 (SN12C): > 100 µM (inactive)
GI50 (K562): > 100 µM (inactive)
GI50 (SR): > 100 µM (inactive)
GI50 (OVCAR-8): > 100 µM (inactive)
GI50 (RXF 393): > 100 µM (inactive)
GI50 (MDA-MB-435): 68.4 µM (inactive)
GI50 (LOX IMVI): > 100 µM (inactive)
GI50 (HOP-92): 87.3 µM (inactive)
GI50 (KM12): > 100 µM (inactive)
GI50 (BT-549): > 100 µM (inactive)
GI50 (T47D): > 100 µM (inactive)
GI50 (M14): > 100 µM (inactive)
GI50 (A549): > 100 µM (inactive)
GI50 (UACC-62): > 100 µM (inactive)
GI50 (HCC 2998): > 100 µM (inactive)
GI50 (CCRF-CEM): > 100 µM (inactive)
GI50 (HT-29): > 100 µM (inactive)
GI50 (786-0): > 100 µM (inactive)
GI50 (MCF7): > 100 µM (inactive)
GI50 (ACHN): > 100 µM (inactive)
GI50 (SK-OV-3): > 100 µM (inactive)
GI50 (Malme-3M): > 100 µM (inactive)
GI50 (MDA-MB-231): > 100 µM (inactive)
GI50 (SF-295): > 100 µM (inactive)
GI50 (HCT-116): > 100 µM (inactive)
GI50 (NCI-H226): > 100 µM (inactive)
GI50 (NCI-H460): > 100 µM (inactive)
